In PubChem BioAssay (NCI) one finds TGI data, which are given here for 17 compounds.

Some test systems named below: XF 498 CNS; HOP-18 NSCLC; M19-MEL melanoma; HCC-2998 colon; LXFL 529 NSCLC; DLD-1 colon; KM20L2 colon; DMS 273 small cell lung; DMS 114 small cell lung; SNB-78 CNS; RXF-631 renal.
Holding throughout (experiment): DTP human tumour cell line panel, 48 h

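Where inhibition never reached the appropriate level, the endpoint shown equals the highest concentration tested. Otherwise, values were interpolated linearly from a five-concentration, 48-hour dose response in 96-well plates. TGI denotes the concentration required for complete inhibition of growth.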 Bounds are passed on as bounds.

As for `C[N+](C)(C)CC(=O)N/N=C/c1oc(-c2c(O)ccc3ccccc23)c(-c2c(O)ccc3ccccc23)c1[N+](=O)[O-]`, the TGI was 55.5 µM in the assay on XF 498 CNS; 62.8 µM in the assay with HOP-18 NSCLC; 60.8 µM in the assay on M19-MEL melanoma; 34.3 µM in the assay with HCC-2998 colon; more than 100 µM in the assay with LXFL 529 NSCLC; 54.6 µM in the assay on DLD-1 colon. In the assay with KM20L2 colon, this compound returned a TGI of 36 µM.
For `O=c1[nH]c2cc([N+](=O)[O-])ccc2nc1/C(=N/Nc1ccccc1)C(O)c1ccccc1Cl` (centres undefined), the TGI with XF 498 CNS was more than 100 µM; in the assay on DMS 273 small cell lung, more than 100 µM; in the assay with M19-MEL melanoma it was more than 100 µM; with HCC-2998 colon it was 64.5 µM; in the assay with LXFL 529 NSCLC it was more than 100 µM; in the assay on DMS 114 small cell lung, more than 100 µM. In addition, the concentration for total growth inhibition (TGI) in the assay with SNB-78 CNS, in the assay with DLD-1 colon and in the assay with KM20L2 colon was more than 100 µM in each case.
As to `C/C(CC(=O)Nc1ccc([N+](=O)[O-])cc1)=N\NC(N)=O`, the TGI with XF 498 CNS, in the assay with DMS 273 small cell lung, in the assay with HOP-18 NSCLC, in the assay on M19-MEL melanoma, in the assay with HCC-2998 colon and in the assay with LXFL 529 NSCLC was more than 100 µM in each case. The TGI in the assay on DMS 114 small cell lung is more than 62.6 µM; in the assay with SNB-78 CNS it was more than 100 µM; with DLD-1 colon, more than 100 µM; with KM20L2 colon, more than 100 µM.
Consider `COC(=O)C(=O)C(C(=O)C(=O)Nc1ccc(F)cc1)c1nc2ccc([N+](=O)[O-])cc2[nH]c1=O` (centres undefined), for which the concentration for total growth inhibition (TGI) in the assay on XF 498 CNS, in the assay on HOP-18 NSCLC, with M19-MEL melanoma, in the assay with HCC-2998 colon, with RXF-631 renal and in the assay with LXFL 529 NSCLC was more than 100 µM each time. Also, the TGI in the assay on SNB-78 CNS, with DLD-1 colon and in the assay on KM20L2 colon was more than 100 µM throughout.
On to `COc1ccc2c3c1O[C@]1(C)C34CCN(C)C(C2)C42C=C[C@@]1(OC)c1c(O)ccc(O)c12`, for which the concentration for total growth inhibition (TGI) with XF 498 CNS, in the assay with DMS 273 small cell lung, in the assay with HOP-18 NSCLC, in the assay on HCC-2998 colon, with LXFL 529 NSCLC and with DMS 114 small cell lung was more than 100 µM throughout. In addition, the TGI in the assay on SNB-78 CNS, in the assay with DLD-1 colon and in the assay with KM20L2 colon was more than 100 µM each time.
As to `CC(=O)OC1COC(n2c(O)c(N=NC(N)=S)c3cc(Br)ccc32)C(OC(C)=O)C1OC(C)=O` (centres undefined), the total growth inhibition concentration (TGI) with XF 498 CNS, in the assay with DMS 273 small cell lung, with HOP-18 NSCLC, with M19-MEL melanoma, in the assay with HCC-2998 colon and in the assay on LXFL 529 NSCLC was more than 100 µM in each case. Further, the TGI in the assay on DMS 114 small cell lung, in the assay on SNB-78 CNS, in the assay with DLD-1 colon and in the assay with KM20L2 colon was more than 100 µM throughout.
For the compound `C[C@]12CCC(=O)C=C1CC[C@@H]1[C@@H]2CC[C@]2(C)C(=O)NC(=O)C[C@@H]12`, the total growth inhibition concentration (TGI) with XF 498 CNS, in the assay with DMS 273 small cell lung, with HOP-18 NSCLC, in the assay with M19-MEL melanoma, in the assay with HCC-2998 colon and with RXF-631 renal was more than 100 µM each time. Also, the TGI in the assay on LXFL 529 NSCLC, with DMS 114 small cell lung, in the assay on SNB-78 CNS, with DLD-1 colon and in the assay on KM20L2 colon was more than 100 µM throughout.
With `COC(=O)N/N=C(\Cc1ccccc1)CN(C)C`, the TGI in the assay on XF 498 CNS, with DMS 273 small cell lung, with M19-MEL melanoma, in the assay on HCC-2998 colon, in the assay on RXF-631 renal and in the assay with LXFL 529 NSCLC was more than 100 µM each time. For the same compound, the TGI with DMS 114 small cell lung, in the assay with SNB-78 CNS, in the assay on DLD-1 colon and with KM20L2 colon was more than 100 µM each time.
`NC1=C(NC(=O)Cc2ccc(F)cc2)C(=O)c2ccccc2C1=O`: the TGI in the assay with XF 498 CNS is more than 100 µM; in the assay on DMS 273 small cell lung, more than 100 µM; with M19-MEL melanoma, 45.4 µM; with HCC-2998 colon it was more than 100 µM; in the assay with RXF-631 renal it was more than 100 µM; in the assay with LXFL 529 NSCLC, more than 100 µM. Further, the TGI is 27 µM with DMS 114 small cell lung, 65.1 µM in the assay with SNB-78 CNS, more than 71.4 µM in the assay with DLD-1 colon and more than 100 µM in the assay with KM20L2 colon.
Consider `O=C(CSc1nnc(-c2ccc(N=Cc3ccc(Cl)cc3)cc2)o1)Nc1ccccc1[N+](=O)[O-]`, for which the TGI in the assay with XF 498 CNS, in the assay on DMS 273 small cell lung, in the assay with HOP-18 NSCLC, in the assay on M19-MEL melanoma, with LXFL 529 NSCLC and with DMS 114 small cell lung was more than 100 µM throughout. Further, the concentration for total growth inhibition (TGI) with SNB-78 CNS and in the assay with KM20L2 colon was more than 100 µM each time.
In the case of `O=C(c1cccs1)N(C(=S)N1CCN(c2ccccn2)CC1)c1ccccc1`, the TGI in the assay with XF 498 CNS was 84 µM; with DMS 273 small cell lung it was more than 100 µM; in the assay with HOP-18 NSCLC it was more than 100 µM; in the assay with M19-MEL melanoma, more than 100 µM; with LXFL 529 NSCLC, more than 100 µM; with DMS 114 small cell lung, more than 100 µM. Also, the TGI in the assay with SNB-78 CNS, with DLD-1 colon and in the assay on KM20L2 colon was more than 100 µM in each case.
With `NC(=O)N/N=C(\CC1OC(=O)c2ccccc21)c1ccco1` (centres undefined), the concentration for total growth inhibition (TGI) with DMS 273 small cell lung, with HOP-18 NSCLC, in the assay on M19-MEL melanoma, in the assay on HCC-2998 colon, in the assay with RXF-631 renal and in the assay on LXFL 529 NSCLC was more than 100 µM in each case. Besides, the TGI with DMS 114 small cell lung, in the assay on DLD-1 colon and with KM20L2 colon was more than 100 µM each time.
Turning to `C=Cc1ccc(C)[n+](C[Si](C)(C)O[Si](C)(C)C)c1`, the TGI in the assay on DMS 273 small cell lung, in the assay on HCC-2998 colon, with RXF-631 renal, with LXFL 529 NSCLC, with DMS 114 small cell lung and in the assay with SNB-78 CNS was more than 100 µM throughout. Further, the TGI with DLD-1 colon and with KM20L2 colon was more than 100 µM throughout.
Turning to `C/C(=N\NS(=O)(=O)c1ccc(C)cc1)C(CN1CCCCC1)C(c1ccccc1)c1c(O)c2ccccc2oc1=O` (centres undefined), the TGI in the assay with XF 498 CNS, with HOP-18 NSCLC, in the assay with HCC-2998 colon, with LXFL 529 NSCLC, in the assay with SNB-78 CNS and in the assay on DLD-1 colon was more than 100 µM throughout. The compound also had a TGI with KM20L2 colon of more than 100 µM.
`COc1cc2c(oc(=O)c3c4oc([Si](C)(C)C)cc4cc(OC)c23)c2cccc(OCc3ccccc3)c12`: the TGI is 27 µM in the assay with XF 498 CNS; 72.8 µM in the assay with DMS 273 small cell lung; 63.8 µM with HOP-18 NSCLC; more than 100 µM in the assay with M19-MEL melanoma; more than 100 µM with HCC-2998 colon; more than 61.8 µM in the assay on LXFL 529 NSCLC. The TGI in the assay on DMS 114 small cell lung is more than 100 µM; in the assay with SNB-78 CNS, 91.6 µM; with DLD-1 colon, more than 100 µM; with KM20L2 colon, more than 100 µM.
Turning to `CC(=O)OCC1=C(CCC#N)N2C(=O)C(NC(=O)Cc3cccs3)C2S(=O)C1` (centres undefined), the TGI with XF 498 CNS, in the assay on DMS 273 small cell lung, in the assay on HOP-18 NSCLC, in the assay with M19-MEL melanoma, with HCC-2998 colon and with DMS 114 small cell lung was more than 100 µM in each case. Moreover, the TGI in the assay with SNB-78 CNS, in the assay on DLD-1 colon and with KM20L2 colon was more than 100 µM in each case.
Regarding `O=c1[nH]c2cc(Cl)ccc2nc1/C(=N\O)C(O)c1cccc([N+](=O)[O-])c1` (centres undefined), the total growth inhibition concentration (TGI) with XF 498 CNS, in the assay with HOP-18 NSCLC, in the assay on M19-MEL melanoma, in the assay on HCC-2998 colon, with RXF-631 renal and in the assay on LXFL 529 NSCLC was more than 100 µM throughout. Also, the TGI with DMS 114 small cell lung, with DLD-1 colon and in the assay with KM20L2 colon was more than 100 µM in each case.
